The values that follow come from patent US7812165B2, “6-substituted pyridoindolone derivatives, production and therapeutic use thereof” (sanofi-aventis, priority 2004, dated 2010).

Take `CCON=Cc1ccc2[nH]c3c(cc(-c4ccc(OC)cc4OC)c(=O)n3C)c2c1` [Compound 7, 3-(2,4-Dimethoxyphenyl)-1-methyl-2-oxo-2,9-dihydro-1H-pyrido[2,3-b]indole-6-carbaldehyde O-ethyloxime]: the melting point was determined as 295 °C.

What is called melting point is the temperature, or range, at which the solid turns liquid.
